These are literature values, as cited in patent US10166194B2, “Hydrocortisone controlled release formulation” (Diurnal Limited, priority 2012, dated 2019).

Each structure is given as a SMILES string.

For `C[C@]12CCC(=O)C=C1CC[C@@H]1[C@@H]2[C@@H](O)C[C@@]2(C)[C@H]1CC[C@]2(O)C(=O)CO` [Hydrocortisone], the half-life result is reported as “ca. 3 hours”.
